The numbers were not newly measured in patent publication US20090148399A1, “Controlled release attractant for gravid female mosquitoes” (priority 2007, published 2009), which cites them from elsewhere.

In the data set the test system is gravid female C. quinquefasciatus. The note with it: gravid female Culex quinquefasciatus.

Consider `CCCCCCCCCC[C@H](OC(C)=O)[C@H]1CCCC(=O)O1` [(5R,6S)-6-acetetoxy-5-hexadecanolide], for which the oviposition attractancy result was “attracts other females of the same species to deposit their eggs gregariously”. Consider `Cc1c[nH]c2ccccc12` [3-Methyl indole], for which the oviposition attractancy result is “highly effective attractant”.
